Assay results published in patent US12529108B2, “Compositions, methods and kits for characterizing and screening for small cell ovarian carcinoma” (THE TRANSLATIONAL GENOMICS RESEARCH INSTITUTE, priority 2014, dated 2026).

Columns and labels:
[1] = system: BIN67; test: Pilot compound screen (LOPAC and Prestwick libraries), cell viability (CellTiter Glo); format: cell-based, human; settings: 5 μM and 10 μM; viability at 72 hours post-treatment; shared hits from HepG2 counterscreen filtered out
From the text: The BIN67 cell line has been characterized for optimal growth conditions, doubling time, cell seeding density, FBS concentration, siRNA transfection conditions (transfection reagent and lipid-to-siRNA ratio to achieve transfection efficiency of 95% or higher), and DMSO tolerance. We have also banked large numbers of BIN67 cells from the same passage to facilitate future screening. Furthermore, we have performed pilot compound and RNAi screens on this cell line.
In BIN67 we screened the LOPAC and Prestwick chemical libraries, diverse libraries of small molecules with good bioavailability and toxicity profiles. These libraries contain 2,400 drugs with subsets of FDA-approved drugs and pharmacologically active compounds. We completed 2 runs in BIN67 with duplicates at concentrations of 5 μM and 10 μM and measured cell viability at 72 hours post-treatment with CellTiter Glo (Promega). The high quality screen was exceeded NIH standards with covariance <5% and Z′-factor 0.83-0.91. […] Notable classes of lead compounds enriched in these hits included 9 cardiac glycosides, 6 tubulin polymerization inhibitors, 2 topoisomerase II inhibitors, and 2 Src/FGFR family kinase inhibitors. In particular, the tubulin inhibitors vincristine and […] are currently used clinically for SCCOHT patients. This serves as a positive confirmation for the robustness and reliability of our screen.

[2] = system: SMARCA2 protein; test: SMARCA2 protein level by Western blotting after HDAC inhibitor treatment; format: cell-based, human; settings: BIN67 and SCCOHT1 cells; Western blotting (FIG. 18B)
From the text: FIGS. 18A-18D depict characterization of SMARCA4/A2 expression in SCCOHT cell lines. […] FIGS. 18C and 18D show Lentivirus-based re-expression of SMARCA4/A2 in BIN67 cells inhibits cell growth.
To understand the roles of these two mutually exclusive ATPases in SCCOHT etiology, we will elucidate the epigenetic consequences of re-expression of one or both SWI/SNF complex ATPases in SCCOHTs.

[3] = system: SCCOHT cell lines; test: FGFR compounds profiling in a drug dose-dependent manner, cell viability; format: cell-based; settings: Homo sapiens; both SCCOHT cell lines (FIG. 22B)
Description: FIGS. 22A and 22B show the characterization of FGFR and MERTK inhibition in BIN67 cell line. […] Four unique sequences per target were tested; GFP sequence is used as a negative scramble control. Cell viability was measured using CellTiter Glo.
Our finding of FGFRs as synthetic lethal targets, in both our HT-RNAi and compound pilot screens, in SCCOHT is novel. […] As we also identified FGFR inhibitors in our pilot compound screen, we further tested 8 FGFR inhibitors in vitro.

[4] = system: SMARCA4/A2 negative SCCOHT cell lines BIN67 and SCCOHT1; test: High-throughput screen of epigenetic agents, cell viability (CellTiter Glo); format: cell-based, human; settings: 3-fold 20-point dilution series, viability 3 days after treatment (FIG. 21)
Description: FIG. 21 depicts SCCOHT sensitivity to epigenetic agents. Cells plated at 1,000 cells/well in a 384-well plate were treated with indicated agents using a serial 3-fold 20-point dilution series. Cell viability was measured 3 days after treatment using CellTiter Glo. Surviving cells were measured and normalized to DMSO-treated cells and IC50s calculated by curve-fitting.
Thus, as in MRTs, targeting epigenetic modifications may have therapeutic potential in SCCOHT. To evaluate the activity of a panel of epigenetic drugs in SCCOHT we performed high-throughput screening in the SMARCA4/A2 negative SCCOHT cell lines BIN67 and SCCOHT1. Effects of epigenetic modifiers from all main classes of epigenetic agents—modifiers of acetylated histones as well as inhibitors of DNA methylation, histone methyltransferases and HDACs—are shown in FIG. 21. BIN67 and SCCOHT1 cells are […] sensitive to many of these agents. […] We have found HDAC2 to be overexpressed in most SCCOHTs including these cell lines.

Question: COc1cc([C@@H]2c3cc4c(cc3[C@@H](O[C@@H]3O[C@@H]5CO[C@@H](C)O[C@H]5[C@H](O)[C@H]3O)[C@H]3COC(=O)[C@H]23)OCO4)cc(OC)c1O [etoposide] was tested. Which “hypersensitivity (screen hit) of BIN67” value [1] did it give?
Answer: hypersensitivity

Question: For CC(/C=C/C(=O)NO)=C\[C@@H](C)C(=O)c1ccc(N(C)C)cc1 [trichostatin A], which “upregulation of SMARCA2 protein” value [2] is on record?
Answer: dose-dependent upregulation

Question: Which IC50 [3] does the source give for Cc1ccc(C(=O)Nc2ccc(CN3CCN(C)CC3)c(C(F)(F)F)c2)cc1C#Cc1cnc2cccnn12 [ponatinib] here?
Answer: 0.005 to 0.333 µM

Question: How did the “hypersensitivity (screen hit) of BIN67” value [1] turn out when CC[C@]1(O)C[C@H]2CN(CCc3c([nH]c4ccccc34)[C@@](C(=O)OC)(c3cc4c(cc3OC)N(C=O)[C@H]3[C@@](O)(C(=O)OC)[C@H](OC(C)=O)[C@]5(CC)C=CCN6CC[C@]43[C@@H]65)C2)C1 [vincristine] was run?
Answer: hypersensitivity

Question: C/C=C1\NC(=O)[C@H]2CSSCC/C=C/[C@H](CC(=O)N[C@H](C(C)C)C(=O)N2)OC(=O)[C@H](C(C)C)NC1=O [Rombidepsin, Romidepsin] was tested. Which “sensitivity of SCCOHT cells to epigenetic agents” value [4] did it give?
Answer: most sensitive
